Measured values reported in patent US5800838A, “Composition that inhibits or destroys at least one unicellular living organism containing fluorine F- and Lithium li+” (priority 1987, dated 1998).
Converted amounts (≈) assume the structure as drawn.

How the values were obtained:
Type in all cases: cell-based
[1] = tested on: Pseudomonas aeruginosa; assay: MIC of antibiotics by microdilution in liquid medium on plates (Example 18); conditions: Pseudomonas aeruginosa
Protocol: The unicellular living organism chosen for the trials is Pseudomonas aeruginosa (wild-type strain originating from hospital sources).
The same methodology as for Examples 11 and 12 was follows. Bacteriostatic analyses were performed with a number of antibiotics belonging to benzylpenicillins, and aminopenicillins, and first and second generation cephalosporins, namely:
The determination of the MIC was carried out by the microdilution method in liquid medium on plates. Aqueous solutions of each antibiotic are prepared in MUELLER HINION broth, to obtain dilutions in a geometric ratio of 2. The solvent is sterile double-distilled water.
The preparation of the bacterial inoculum is made with a culture of Pseudomonas aeruginosa, with agitation on a water bath at 37° C. for 4 to 6 hours, giving 10^6 bacteria/ml.
Three trials were performed per antibiotic and per bacterial inoculum. The trials were performed first with the antibiotics alone (trials a).sctn., and then with the addition of a dose of 1 mg/l of an aqueous solution of lithium fluoride (trials b).sctn. to the dilution of each one in every cup of every plate.

[2] = tested on: Pseudomonas aeruginosa; assay: MIC on 200 wild-type strains of Pseudomonas aeruginosa (Examples 19 and 20)
Protocol: With the same methodology as above, the MIC values of benzalkonium chloride alone, in the presence of the KATHON CG (registered trademark) preservative (1 mg/l), and then in the presence of KATHON CG (registered trademark) (1 mg/l) and lithium fluoride (1 mg/l), were determined. 200 wild-type strains of Pseudomonas aeruginosa were tested.
The same trial as in Example 19 was performed, but with nonoxinol 9 as the primary active principle: 200 wild-type strains of Pseudomonas aeruginosa were also tested.

[3] = tested on: Gardnerella vaginalis; assay: Number of strains inhibited, bactericidal substance incorporated in culture medium (first trial); conditions: NaF or LiF 1 mg/l where added
Protocol: In the first trial, the sample of bactericidal substance was incorporated directly in the specific culture edium of the microorganism. A concentration series of the bactericidal substance was prepared in the geometric ratio of 2, from 400 μg/ml to 1.56 μg/ml. The cell concentration used in the seeding of the Petri dishes was […]. A 24-hour incubation was performed at 37° C. and then, for each wild-type strain tested, the concentration of primary principle destroying all the microorganisms (see method of Professor F. CATALAN et al., Institut A. FOURNIER, PARIS) was determined. The trail was performed on 32 wild-type strains of Gardnerella vaginalis originating from hospital sources and with benzalkonium chloride and then nonoxinol 9 as active principles, and with sodium fluoride NaF at a concentration of 1 mg/l and then lithium fluoride LiF at a concentration of 1 mg/l as activating principles.

[4] = tested on: spermatozoa; assay: SANDERS-CRAMER total spermicidal test according to IPPF standards; conditions: alone
[5] = tested on: Pseudomonas aeruginosa; assay: Resistance of Pseudomonas aeruginosa to antiseptics in terms of water hardness and proteins;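 further: R means colony growth observed and S means no significant growth; key: R: resistant (a growth of colonies was observed); S: sensitive (no significant growth was observed)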
Protocol: The resistance of Pseudomonas aeruginosa to various reputedly bactericidal active principles or commercial antiseptics was studied in terms of the hardness of the water and the presence or absence of proteins. The same trial was carried out on the foaming paste according to the invention (see Example 15).

[6] = + LiF 1 mg/l, strain lic R βLac^+ OXA, read-out: MIC (average MIC value)
[7] = + LiF 1 mg/l, strain lic R βLac^+ PSE, read-out: MIC (average MIC value)
[8] = + LiF 1 mg/l, strain lic R βLac^+ TEM, read-out: MIC (average MIC value)
[9] = + LiF 1 mg/l, strain lic R βLac^+ cephalosporinase, read-out: MIC (average MIC value)
[10] = + LiF 1 mg/l, strain lic S βLac^- (first column), read-out: MIC (average MIC value)
[11] = + LiF 1 mg/l, strain lic S βLac^- (second column), read-out: MIC (average MIC value)
[12] = alone, strain lic R βLac^+ OXA, read-out: MIC (average MIC value)
[13] = alone, strain lic R βLac^+ PSE, read-out: MIC (average MIC value)
[14] = alone, strain lic R βLac^+ TEM, read-out: MIC (average MIC value)
[15] = alone, strain lic R βLac^+ cephalosporinase, read-out: MIC (average MIC value)
[16] = alone, strain lic S βLac^- (first column), read-out: MIC (average MIC value)
[17] = alone, strain lic S βLac^- (second column), read-out: MIC (average MIC value)

Compound: CC(C)(O/N=C(\C(=O)N[C@@H]1C(=O)N2C(C(=O)[O-])=C(C[n+]3ccccc3)CS[C@H]12)c1csc(N)n1)C(=O)O [CAFTAZIDIME, ceftazidime]
- MIC ([1]; read-out: MIC (average MIC value), + LiF 1 mg/l, strain lic R βLac^+ OXA): 4 µg/mL
- MIC ([1]; read-out: MIC (average MIC value), + LiF 1 mg/l, strain lic R βLac^+ PSE): 2 µg/mL
- MIC ([1]; read-out: MIC (average MIC value), + LiF 1 mg/l, strain lic R βLac^+ TEM): 4 µg/mL
- MIC ([1]; read-out: MIC (average MIC value), + LiF 1 mg/l, strain lic R βLac^+ cephalosporinase): 32 µg/mL
- MIC ([1]; read-out: MIC (average MIC value), + LiF 1 mg/l, strain lic S βLac^- (first column)): 2 µg/mL
- MIC ([1]; read-out: MIC (average MIC value), + LiF 1 mg/l, strain lic S βLac^- (second column)): 4 µg/mL
- MIC ([1]; read-out: MIC (average MIC value), alone, strain lic R βLac^+ OXA): 4 µg/mL
- MIC ([1]; read-out: MIC (average MIC value), alone, strain lic R βLac^+ PSE): 2 µg/mL
- MIC ([1]; read-out: MIC (average MIC value), alone, strain lic R βLac^+ TEM): 4 µg/mL
- MIC ([1]; read-out: MIC (average MIC value), alone, strain lic R βLac^+ cephalosporinase): 32 µg/mL
- MIC ([1]; read-out: MIC (average MIC value), alone, strain lic S βLac^- (first column)): 4 µg/mL
- MIC ([1]; read-out: MIC (average MIC value), alone, strain lic S βLac^- (second column)): 4 µg/mL

Compound: CCCCCCCCCc1ccc(OCCOCCOCCOCCOCCOCCOCCOCCOCCO)cc1 [Nonoxinol 9]
- MIC ([2]; + KATHON CG (1 mg/l) + LiF (1 mg/l), strain Tic R βLac^+): 64 µg/mL
- MIC ([2]; + KATHON CG (1 mg/l) + LiF (1 mg/l), strain Tic R βLac^+ OXA): 64 µg/mL
- MIC ([2]; + KATHON CG (1 mg/l) + LiF (1 mg/l), strain Tic R βLac^+ PSE): 64 µg/mL
- MIC ([2]; + KATHON CG (1 mg/l) + LiF (1 mg/l), strain Tic R βLac^+ TEM): 64 µg/mL
- MIC ([2]; + KATHON CG (1 mg/l) + LiF (1 mg/l), strain Tic R βLac^+ cephalosporinase): 128 µg/mL
- MIC ([2]; + KATHON CG (1 mg/l) + LiF (1 mg/l), strain Tic S βLac^-): 32 µg/mL
- MIC ([2]; alone, strain Tic R βLac^+): 128 µg/mL (≈ 208 µM)
- MIC ([2]; alone, strain Tic R βLac^+ OXA): 128 µg/mL (≈ 208 µM)
- MIC ([2]; alone, strain Tic R βLac^+ PSE): 64 µg/mL (≈ 104 µM)
- MIC ([2]; alone, strain Tic R βLac^+ TEM): 128 µg/mL (≈ 208 µM)
- MIC ([2]; alone, strain Tic R βLac^+ cephalosporinase): 256 µg/mL (≈ 415 µM)
- MIC ([2]; alone, strain Tic S βLac^-): 64 µg/mL (≈ 104 µM)
- number of strains inhibited out of the 32 tested ([3]; primary active principle 1.56 mg/l): 0
- number of strains inhibited out of the 32 tested ([3]; primary active principle 3.125 mg/l): 0
- number of strains inhibited out of the 32 tested ([3]; primary active principle 6.25 mg/l): 0
- number of strains inhibited out of the 32 tested ([3]; primary active principle 12.5 mg/l): 0
- number of strains inhibited out of the 32 tested ([3]; primary active principle 25 mg/l): 4
- number of strains inhibited out of the 32 tested ([3]; primary active principle 50 mg/l): 6
- number of strains inhibited out of the 32 tested ([3]; primary active principle 100 mg/l): 10
- number of strains inhibited out of the 32 tested ([3]; primary active principle 200 mg/l): 25
- number of strains inhibited out of the 32 tested ([3]; primary active principle 400 mg/l): 32

Compound: [Cl-].[Li+] [lithium chloride]
- MIC [4]: 20 ppm
- MIC, equivalent in % [4]: 0.002%

Compound: O=S(=O)([O-])[O-].[Zn+2] [Zinc sulphate]
- resistance ([5]; 0.2 ml inoculum, contact time 10 mn, distilled water, P+): R
- resistance ([5]; 0.2 ml inoculum, contact time 10 mn, distilled water, P-): R
- resistance ([5]; 0.2 ml inoculum, contact time 10 mn, hard water, P+): R
- resistance ([5]; 0.2 ml inoculum, contact time 10 mn, hard water, P-): R
- resistance ([5]; 0.4 ml inoculum, contact time 20 mn, distilled water, P+): R
- resistance ([5]; 0.4 ml inoculum, contact time 20 mn, distilled water, P-): R
- resistance ([5]; 0.4 ml inoculum, contact time 20 mn, hard water, P+): R
- resistance ([5]; 0.4 ml inoculum, contact time 20 mn, hard water, P-): R
- resistance ([5]; 0.6 ml inoculum, contact time 30 mn, distilled water, P+): R
- resistance ([5]; 0.6 ml inoculum, contact time 30 mn, distilled water, P-): R
- resistance ([5]; 0.6 ml inoculum, contact time 30 mn, hard water, P+): R
- resistance ([5]; 0.6 ml inoculum, contact time 30 mn, hard water, P-): R

Compound: NC(=O)c1cc[n+](CC2=C(C(=O)O)N3C(=O)[C@@H](NC(=O)[C@@H](c4ccccc4)S(=O)(=O)[O-])[C@H]3SC2)cc1 [CEFSULODIN, cefsulodin]
- MIC [1, 6]: 16 µg/mL
- MIC [1, 7]: 16 µg/mL
- MIC [1, 8]: 32 µg/mL
- MIC [1, 9]: 64 µg/mL
- MIC [1, 10]: 4 µg/mL
- MIC [1, 11]: 16 µg/mL
- MIC [1, 12]: 16 µg/mL
- MIC [1, 13]: 32 µg/mL
- MIC [1, 14]: 32 µg/mL
- MIC [1, 15]: 64 µg/mL
- MIC [1, 16]: 4 µg/mL
- MIC [1, 17]: 16 µg/mL

Compound: CC1(C)S[C@@H]2[C@H](NC(=O)[C@H](NC(=O)N3CCNC3=O)c3ccccc3)C(=O)N2[C@H]1C(=O)O [AZLOCILLIN, azlocillin]
- MIC [1, 6]: 64 µg/mL
- MIC [1, 7]: 64 µg/mL
- MIC [1, 8]: 64 µg/mL
- MIC [1, 9]: 128 µg/mL
- MIC [1, 10]: 4 µg/mL
- MIC [1, 11]: 32 µg/mL
- MIC [1, 12]: 64 µg/mL
- MIC [1, 13]: 64 µg/mL
- MIC [1, 14]: 64 µg/mL
- MIC [1, 15]: 128 µg/mL
- MIC [1, 16]: 8 µg/mL
- MIC [1, 17]: 32 µg/mL
